Test results from ChEMBL document CHEMBL4130638, “Discovery of the Polyamine Conjugate with Benzo[ cd]indol-2(1 H)-one as a Lysosome-Targeted Antimetastatic Agent” (J Med Chem, 2018).
Activity calls are given as the source filed them. No cut-off for these calls is given here.

Key:
HCT-116 [1] = assay: Induction of apoptosis in human HCT116 cells assessed as live cells at 10 uM after 24 hrs in presence of pan-caspase inhibitor Z-VAD-FMK by annexin V-FITC/propidium iodide staining based flow cytometry (reference value: 89.97%); format: functional
[2] = Drug uptake in human HCT116 cells assessed as PAT-mediated drug internalization at 2.5 to 7.5 uM after 24 hrs in presence of spermidine by high content screening analysis; format: ADME, cell-based
HCT-116 [3] = assay: Growth inhibition of human HCT116 cells after 24 hrs by MTT assay; format: functional, cell-based
HCT-116 [4] = assay: Induction of autophagy in human HCT116 cells at 5 to 20 uM after 24 hrs in presence of pan-caspase inhibitor Z-VAD-FMK by MDC staining based flow cytometry; format: functional, cell-based
HCT-116 [5] = assay: Upregulation of cleaved caspase-3 protein expression in human HCT116 cells up to 10 uM after 24 hrs by Western blot method; format: functional, cell-based
HCT-116 [6] = assay: Downregulation of cathepsin-B protein expression in human HCT116 cells after 24 hrs by Western blot method; format: functional, cell-based

Drug uptake [2]: Not Active | IC50 (HCT-116 [3]; HCT-116, 24 h): 6.9 µM
SMILES: Cl.Cl.Cl.NCCCCNCCCCNCCCCN1C(=O)c2cccc3cccc1c23
Activity (HCT-116 [1]): 66.87% | growth inhibition (GI) (HCT-116 [3]): Dose-dependent effect | Activity (HCT-116 [4]): inactive | Activity (HCT-116 [5]): Active | Activity (HCT-116 [6]): Dose-dependent effect
